According to patent US20250288681A1, “SOLID COMPOSITIONS COMPRISING A GLUCOKINASE ACTIVATOR AND METHODS OF MAKING AND USING THE SAME” (vTv Therapeutics LLC, priority 2013, published 2025):

Experiment: stability of solid form (statement only)
Format: physicochemical
Conditions: qualitative statement, no data

Row | SMILES | stability
1 | CCCO[C@H]1CC[C@H](N(C(=O)Nc2ncc(SCC(=O)O)s2)C2CCCCC2)CC1 [Form A, {2-[3-cyclohexyl-3-(trans-4-propoxy-cyclohexyl)-ureido]-thiazol-5-ylsulfanyl}-acetic acid] | particularly stable
2 | CCCO[C@H]1CC[C@H](N(C(=O)Nc2ncc(SCC(=O)O)s2)C2CCCCC2)CC1 [UD1-FA, {2-[3-cyclohexyl-3-(trans-4-propoxy-cyclohexyl)-ureido]-thiazol-5-ylsulfanyl}-acetic acid] | greater stability relative to some of its pharmaceutically acceptable salts
